In PubChem BioAssay (NCI) one finds TGI data, which are given here for 7 molecules.

Each structure is given as a SMILES string.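 Compound exposure: 48 hours, 5 concentrations, 96-well plates. TGI is the concentration that stops growth completely.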

Some test systems named below: EKVX NSCLC; HCT-116 colon; HOP-92 NSCLC; HT29 colon; MCF7 breast; MDA-MB-231 breast; MDA-MB-435; MOLT-4 leukemia; NCI-H522 lung; NCI/ADR-RES ovarian; OVCAR-5 ovarian; PC-3 prostate; SF-295 CNS; SNB-19 CNS; SW-620 colon; U251 CNS; UO-31 renal; SN12C renal.
Holding throughout (experiment): growth of human tumour cells (NCI), 48 h

As to `O=c1[nH]c2c(c(=O)[nH]1)SC(c1ccccc1)C2` (configuration not stated), the TGI with EKVX NSCLC, in the assay on HCT-116 colon, in the assay on HOP-92 NSCLC, with HT29 colon, in the assay on MCF7 breast and with MDA-MB-231 breast was more than 100 µM each time. Also, the TGI in the assay on MDA-MB-435, with MOLT-4 leukemia, in the assay on NCI-H522 lung, in the assay on NCI/ADR-RES ovarian, in the assay on OVCAR-5 ovarian and in the assay with PC-3 prostate was more than 100 µM in each case. Further, the TGI in the assay on SF-295 CNS, in the assay on SNB-19 CNS, with SW-620 colon, in the assay with U251 CNS and with UO-31 renal was more than 100 µM throughout.
Regarding `CCOC(=O)C1=C(C)N(c2ccc(Cl)cc2)C2(O)C=CC(=O)C3=C(O)c4ccccc4C(=O)C312` (configuration not stated), the TGI is 21.4 µM with EKVX NSCLC; 11.6 µM with HCT-116 colon; 8.98 µM in the assay with HOP-92 NSCLC; 8.72 µM in the assay on MCF7 breast; 25 µM in the assay with MDA-MB-231 breast; 11.3 µM with MDA-MB-435. Further, the TGI in the assay on MOLT-4 leukemia worked out at 8.65 µM; with NCI-H522 lung, 6.45 µM; in the assay on NCI/ADR-RES ovarian, 12.6 µM; with OVCAR-5 ovarian, 30.7 µM; in the assay with PC-3 prostate, 15.8 µM; in the assay on SF-295 CNS, 22.4 µM. Besides, the TGI was 13.5 µM in the assay on SN12C renal; 33.1 µM in the assay with SNB-19 CNS; 12.7 µM in the assay on SW-620 colon; 15.6 µM in the assay with U251 CNS; 15.8 µM in the assay on UO-31 renal.
With `O=C1CSC(c2ccccc2O)N1c1ccc2c(c1)Oc1c(Cl)c3c(c(Cl)c1=N2)Oc1cc(N2C(=O)CSC2c2ccccc2O)ccc1N=3` (configuration not stated), the TGI is more than 100 µM in the assay on EKVX NSCLC; more than 100 µM in the assay on HCT-116 colon; 39.9 µM in the assay with HOP-92 NSCLC; more than 100 µM in the assay on HT29 colon; more than 100 µM in the assay with MCF7 breast; more than 100 µM in the assay with MDA-MB-231 breast. The TGI was more than 100 µM in the assay on MDA-MB-435; 46.4 µM in the assay with MOLT-4 leukemia; 52 µM with NCI-H522 lung; more than 100 µM in the assay on NCI/ADR-RES ovarian; more than 100 µM with OVCAR-5 ovarian; more than 100 µM with PC-3 prostate. The TGI was more than 100 µM in the assay on SF-295 CNS, more than 100 µM in the assay with SW-620 colon, 65 µM in the assay on U251 CNS and more than 100 µM in the assay on UO-31 renal.
`O[C@@]1(C#Cc2ccc3c(c2)OCO3)CCC[C@H]1NCc1ccccc1`: the TGI is more than 100 µM in the assay with EKVX NSCLC; 38 µM in the assay on HOP-92 NSCLC; 44.9 µM in the assay on HT29 colon; 55.3 µM in the assay on MCF7 breast; more than 100 µM with MDA-MB-231 breast; 50.2 µM in the assay on MDA-MB-435. Further, the TGI with MOLT-4 leukemia was 45.1 µM; with NCI-H522 lung, 29.8 µM; in the assay with NCI/ADR-RES ovarian, 40.6 µM; with OVCAR-5 ovarian it was more than 100 µM; with PC-3 prostate it was 51.3 µM; with SF-295 CNS it was 40.3 µM. The TGI was 68.4 µM with SNB-19 CNS, more than 100 µM with SW-620 colon, 59.6 µM with U251 CNS and 43.9 µM in the assay on UO-31 renal.
With `CCO/C(O)=C(/C(=N)N1CCOCC1)C(=O)NC(C)C`, the TGI with EKVX NSCLC, in the assay on HCT-116 colon, with HOP-92 NSCLC, in the assay with HT29 colon, with MCF7 breast and with MDA-MB-231 breast was more than 100 µM throughout. Also, the TGI in the assay on MDA-MB-435, with MOLT-4 leukemia, with NCI-H522 lung, with NCI/ADR-RES ovarian, in the assay with OVCAR-5 ovarian and in the assay on PC-3 prostate was more than 100 µM each time. For the same molecule, the TGI in the assay with SF-295 CNS, with SN12C renal, in the assay with SNB-19 CNS, with SW-620 colon and in the assay on U251 CNS was more than 100 µM in each case.
As to `CN1CCN(c2cc3nc(-c4ccc(Cl)cc4)[nH]c3cc2F)CC1`, the TGI in the assay with EKVX NSCLC is 72.3 µM; in the assay with HCT-116 colon, more than 54.4 µM; in the assay with HOP-92 NSCLC, more than 70.4 µM; in the assay on MCF7 breast, more than 45.2 µM; in the assay on MDA-MB-231 breast it was 60.8 µM; with MDA-MB-435 it was 32.1 µM. For the same molecule, the TGI in the assay on MOLT-4 leukemia is 41.1 µM; in the assay with NCI-H522 lung it was 32 µM; in the assay on NCI/ADR-RES ovarian it was 67.6 µM; in the assay on OVCAR-5 ovarian, 48.9 µM; with PC-3 prostate it was 40.8 µM; in the assay on SF-295 CNS it was 28.8 µM. For the same molecule, the TGI with SN12C renal was more than 100 µM; in the assay with SNB-19 CNS, more than 81.8 µM; with SW-620 colon, more than 64.4 µM; in the assay with U251 CNS, more than 75.9 µM; in the assay with UO-31 renal it was 20.6 µM.
On to `C[N+](C)(C)CC(=O)N/N=C(\Cc1nc2ccc([N+](=O)[O-])cc2[nH]c1=O)C(=O)Nc1nc2ccc([N+](=O)[O-])cc2s1`, for which the TGI in the assay with EKVX NSCLC, with HCT-116 colon, with HOP-92 NSCLC, with HT29 colon, in the assay on MCF7 breast and in the assay with MDA-MB-231 breast was more than 100 µM in each case. Also, the TGI in the assay on MDA-MB-435 is more than 100 µM; in the assay on MOLT-4 leukemia, more than 100 µM; in the assay on NCI-H522 lung, 79.8 µM; with NCI/ADR-RES ovarian, more than 100 µM; in the assay with OVCAR-5 ovarian it was more than 100 µM; in the assay with PC-3 prostate it was more than 100 µM. Also, the TGI with SF-295 CNS, in the assay with SN12C renal, in the assay with SW-620 colon, in the assay with U251 CNS and in the assay with UO-31 renal was more than 100 µM each time.
